Laboratory results reported in ChEMBL document CHEMBL1131753, “Selective binding of bryostatin analogues to the cysteine rich domains of protein kinase C isozymes” (Bioorg Med Chem Lett, 1999).

How the values were obtained:
[1] = biological target: Protein kinase C eta type (Homo sapiens, UniProt P24723); assay: Displacement of [3H]PDBu from protein kinase C eta C1b domain
[2] = biological target: Protein kinase C alpha type (Homo sapiens, UniProt P17252); assay: Displacement of [3H]PDBu from protein kinase C alpha C1b domain
[3] = biological target: Protein kinase C theta type (Homo sapiens, UniProt Q04759); assay: Displacement of [3H]PDBu from protein kinase C theta-C1B domain
[4] = biological target: T1, Protein kinase C delta type (Homo sapiens, UniProt Q05655); assay: Displacement of [3H]PDBu from protein kinase C delta C1a domain
[5] = biological target: Protein kinase C beta type (Homo sapiens, UniProt P05771); assay: Displacement of [3H]PDBu from protein kinase C beta C1b domain
[6] = biological target: T2, Protein kinase C epsilon type (Homo sapiens, UniProt Q02156); assay: Displacement of [3H]PDBu from protein kinase C epsilon C1b domain
T2 sequence (Q02156 whole entry): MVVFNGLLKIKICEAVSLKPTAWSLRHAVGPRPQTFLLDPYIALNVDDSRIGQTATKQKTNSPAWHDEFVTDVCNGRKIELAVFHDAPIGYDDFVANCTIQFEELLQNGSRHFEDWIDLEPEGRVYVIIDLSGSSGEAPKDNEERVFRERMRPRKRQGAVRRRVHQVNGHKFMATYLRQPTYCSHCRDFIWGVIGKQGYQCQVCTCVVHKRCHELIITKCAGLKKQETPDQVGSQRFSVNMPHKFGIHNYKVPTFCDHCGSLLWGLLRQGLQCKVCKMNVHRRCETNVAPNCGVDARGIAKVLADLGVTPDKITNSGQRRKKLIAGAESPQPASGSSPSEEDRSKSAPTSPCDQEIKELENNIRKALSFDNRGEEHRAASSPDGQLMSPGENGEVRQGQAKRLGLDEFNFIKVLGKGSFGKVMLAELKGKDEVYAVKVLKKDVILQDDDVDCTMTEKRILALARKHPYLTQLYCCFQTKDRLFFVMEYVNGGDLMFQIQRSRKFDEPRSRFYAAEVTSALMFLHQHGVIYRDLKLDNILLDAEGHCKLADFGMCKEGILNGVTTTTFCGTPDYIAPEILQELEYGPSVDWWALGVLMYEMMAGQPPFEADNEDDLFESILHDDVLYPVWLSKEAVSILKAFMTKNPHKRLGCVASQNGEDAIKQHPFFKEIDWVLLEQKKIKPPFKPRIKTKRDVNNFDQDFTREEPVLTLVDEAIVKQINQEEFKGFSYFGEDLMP

[7] = biological target: T3, Protein kinase C gamma type (Homo sapiens, UniProt P05129); assay: Displacement of [3H]PDBu from protein kinase C gamma C1b domain
[8] = biological target: T1, Protein kinase C delta type; assay: Displacement of [3H]PDBu from protein kinase C delta C1b domain
[9] = biological target: T3, Protein kinase C gamma type; assay: Displacement of [3H]-PDBu from protein kinase C gamma C1a domain

Protein kinase C theta type, sequence (Q04759 whole entry, the tested form may be a part): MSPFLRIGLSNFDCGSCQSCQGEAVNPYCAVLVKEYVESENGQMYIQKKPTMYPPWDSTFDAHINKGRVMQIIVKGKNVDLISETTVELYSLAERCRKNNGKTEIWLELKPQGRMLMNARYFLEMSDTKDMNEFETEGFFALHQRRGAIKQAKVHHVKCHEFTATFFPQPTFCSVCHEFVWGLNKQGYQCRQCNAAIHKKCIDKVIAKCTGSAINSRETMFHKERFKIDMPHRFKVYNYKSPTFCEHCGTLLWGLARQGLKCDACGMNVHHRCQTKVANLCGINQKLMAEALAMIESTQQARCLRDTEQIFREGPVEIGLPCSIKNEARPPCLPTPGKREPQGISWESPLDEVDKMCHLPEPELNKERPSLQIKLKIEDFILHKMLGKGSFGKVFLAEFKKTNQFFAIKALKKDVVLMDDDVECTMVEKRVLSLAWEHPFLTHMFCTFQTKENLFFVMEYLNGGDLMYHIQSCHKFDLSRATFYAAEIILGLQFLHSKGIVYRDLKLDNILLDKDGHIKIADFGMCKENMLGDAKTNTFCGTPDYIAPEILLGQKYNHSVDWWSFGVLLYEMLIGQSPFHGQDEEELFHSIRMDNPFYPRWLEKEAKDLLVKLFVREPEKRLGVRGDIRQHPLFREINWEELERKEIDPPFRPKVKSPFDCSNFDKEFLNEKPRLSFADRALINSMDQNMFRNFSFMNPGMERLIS
Protein kinase C eta type, sequence (P24723 whole entry, the tested form may be a part): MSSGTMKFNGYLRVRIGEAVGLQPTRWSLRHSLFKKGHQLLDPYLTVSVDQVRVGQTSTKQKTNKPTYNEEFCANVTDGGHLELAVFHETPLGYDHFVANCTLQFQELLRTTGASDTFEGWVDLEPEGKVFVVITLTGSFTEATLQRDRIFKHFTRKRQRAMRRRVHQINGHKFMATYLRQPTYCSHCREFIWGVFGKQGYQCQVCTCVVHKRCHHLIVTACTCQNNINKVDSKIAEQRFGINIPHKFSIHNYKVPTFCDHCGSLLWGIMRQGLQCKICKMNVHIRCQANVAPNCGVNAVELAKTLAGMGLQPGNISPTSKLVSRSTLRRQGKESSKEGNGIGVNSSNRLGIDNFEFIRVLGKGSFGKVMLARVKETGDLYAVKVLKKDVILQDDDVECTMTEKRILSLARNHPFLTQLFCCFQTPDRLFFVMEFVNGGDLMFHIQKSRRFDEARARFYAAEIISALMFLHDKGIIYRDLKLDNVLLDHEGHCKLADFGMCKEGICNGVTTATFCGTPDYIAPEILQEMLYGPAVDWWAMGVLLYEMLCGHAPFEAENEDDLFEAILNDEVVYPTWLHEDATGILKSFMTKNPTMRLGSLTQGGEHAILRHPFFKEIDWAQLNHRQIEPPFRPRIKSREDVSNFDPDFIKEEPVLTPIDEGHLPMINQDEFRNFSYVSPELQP
T1 sequence (Q05655 whole entry, the tested form may be a part): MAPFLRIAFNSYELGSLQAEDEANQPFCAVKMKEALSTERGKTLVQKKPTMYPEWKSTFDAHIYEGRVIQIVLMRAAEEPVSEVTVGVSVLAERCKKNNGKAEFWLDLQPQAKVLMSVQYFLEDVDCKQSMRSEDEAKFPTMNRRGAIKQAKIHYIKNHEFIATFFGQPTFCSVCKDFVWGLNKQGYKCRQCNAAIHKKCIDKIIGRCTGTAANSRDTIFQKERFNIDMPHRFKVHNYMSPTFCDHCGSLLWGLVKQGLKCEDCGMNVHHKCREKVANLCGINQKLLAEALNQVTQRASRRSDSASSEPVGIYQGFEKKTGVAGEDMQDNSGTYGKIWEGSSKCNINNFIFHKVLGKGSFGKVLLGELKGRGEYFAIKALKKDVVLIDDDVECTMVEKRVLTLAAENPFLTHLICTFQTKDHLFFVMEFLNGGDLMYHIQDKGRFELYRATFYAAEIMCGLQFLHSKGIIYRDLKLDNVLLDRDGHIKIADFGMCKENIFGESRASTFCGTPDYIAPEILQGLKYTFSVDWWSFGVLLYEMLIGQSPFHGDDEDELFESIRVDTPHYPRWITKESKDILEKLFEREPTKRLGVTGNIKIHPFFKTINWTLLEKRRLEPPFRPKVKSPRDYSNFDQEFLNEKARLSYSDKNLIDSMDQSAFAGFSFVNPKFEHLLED
Protein kinase C beta type, sequence (P05771 whole entry, the tested form may be a part): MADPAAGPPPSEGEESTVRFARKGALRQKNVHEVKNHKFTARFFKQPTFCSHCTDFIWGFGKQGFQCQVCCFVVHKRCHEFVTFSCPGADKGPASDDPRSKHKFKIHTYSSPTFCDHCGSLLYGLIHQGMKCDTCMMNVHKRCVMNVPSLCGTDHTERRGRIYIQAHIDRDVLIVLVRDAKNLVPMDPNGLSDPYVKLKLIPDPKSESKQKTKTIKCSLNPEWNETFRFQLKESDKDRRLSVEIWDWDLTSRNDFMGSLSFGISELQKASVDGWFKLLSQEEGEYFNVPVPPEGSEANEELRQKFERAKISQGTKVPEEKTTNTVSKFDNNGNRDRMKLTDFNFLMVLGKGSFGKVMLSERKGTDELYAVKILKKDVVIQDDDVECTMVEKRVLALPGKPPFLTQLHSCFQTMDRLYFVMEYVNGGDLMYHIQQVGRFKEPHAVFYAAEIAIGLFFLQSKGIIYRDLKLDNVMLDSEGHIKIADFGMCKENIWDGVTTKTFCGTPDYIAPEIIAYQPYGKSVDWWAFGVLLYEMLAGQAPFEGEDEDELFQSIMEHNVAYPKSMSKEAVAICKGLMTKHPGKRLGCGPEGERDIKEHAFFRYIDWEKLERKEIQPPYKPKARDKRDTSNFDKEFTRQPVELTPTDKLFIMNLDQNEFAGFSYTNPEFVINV

| Compound | Ki [1] | Ki [2] | Ki [3] | Ki [4] | Ki [5] | Ki [6] | Ki [7] | Ki [8] | Ki [9] |
| --- | --- | --- | --- | --- | --- | --- | --- | --- | --- |
| CCCCCCCC(=O)O[C@H]1/C(=C/C(=O)OC)CC2C[C@H]([C@@H](C)O)OC(=O)C[C@H](O)CCO[C@H](C(C)(C)C)C[C@@H]3CCO[C@H](/C=C/C(C)(C)[C@]1(O)O2)O3 | 70.2 nM | > 500 nM | 24.1 nM | 85.4 nM | 36.4 nM | 55 nM | > 500 nM | 6.3 nM | > 500 nM |
| CCCCCCCC(=O)O[C@H]1/C(=C/C(=O)OC)CC2C[C@H]([C@@H](C)O)OC(=O)C[C@H](O)C[C@@H]3CCC[C@H](C[C@@H]4CCO[C@H](/C=C/C(C)(C)[C@]1(O)O2)O4)O3 | 23.5 nM | 126 nM | 6.6 nM | 65.9 nM | 13.4 nM | 17.9 nM | > 500 nM | 2.5 nM | > 500 nM |
| CCCCCCCC(=O)O[C@H]1/C(=C/C(=O)OC)CC2C[C@H]([C@@H](C)O)OC(=O)C[C@@H](O)C[C@@H]3CCC[C@H](C[C@@H]4CCO[C@H](/C=C/C(C)(C)[C@]1(O)O2)O4)O3 | > 500 nM | > 500 nM | 147 nM | 494 nM | 280 nM | 490 nM | > 500 nM | 64.2 nM | > 500 nM |
